From ChEMBL document CHEMBL5543122, “Discovery of HC-7366: An Orally Bioavailable and Efficacious GCN2 Kinase Activator” (J Med Chem, 2024)

Tests used:
Cytochrome P450 3A4 = Cytochrome P450 3A4 (Homo sapiens, UniProt P08684); assay: Inhibition of CYP3A4 in human liver microsomes using midazolam substrate incubated for 5 mins in presence of NADPH by UPLC-MS/MS analysis
[1] = Unbound fraction in BALB/c mouse plasma at 3 mg/kg, po and 1 mg/kg, iv measured upto 24 hrs; type: ADME, organism-based
[2] = Unbound fraction in Sprague-Dawley rat plasma at 1 mg/kg, iv measured upto 24 hrs; type: ADME, organism-based
[3] = Unbound AUC in Sprague-Dawley rat at 3 mg/kg, po measured upto 24 hrs; type: ADME, organism-based; conditions: in vivo
[4] = Antitumor activity against human MOLM16 cells xenografted in BALB/c nude mouse assessed as tumor growth inhibition at 1 mg/kg administered twice a day for 17 days; type: functional, MOLM-16; conditions: MOLM16, 408 h, time 17 day, read-out: TGI

Sequence of Cytochrome P450 3A4 (P08684 whole entry): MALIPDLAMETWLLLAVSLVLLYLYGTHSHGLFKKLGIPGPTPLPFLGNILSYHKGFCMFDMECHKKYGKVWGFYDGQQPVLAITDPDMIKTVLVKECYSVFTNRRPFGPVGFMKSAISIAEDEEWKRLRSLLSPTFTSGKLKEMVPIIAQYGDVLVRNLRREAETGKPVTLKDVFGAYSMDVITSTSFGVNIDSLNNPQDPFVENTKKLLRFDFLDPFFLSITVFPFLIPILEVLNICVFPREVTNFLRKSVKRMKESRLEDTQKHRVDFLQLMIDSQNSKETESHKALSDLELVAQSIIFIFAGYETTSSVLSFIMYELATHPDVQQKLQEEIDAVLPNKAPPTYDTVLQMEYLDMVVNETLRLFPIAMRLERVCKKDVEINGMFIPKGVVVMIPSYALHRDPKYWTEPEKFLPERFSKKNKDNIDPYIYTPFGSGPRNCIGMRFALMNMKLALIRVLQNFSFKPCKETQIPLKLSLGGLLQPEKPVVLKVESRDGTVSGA

CNC(=O)c1ncn2cc(-c3c(F)ccc(NS(=O)(=O)c4cc(Cl)cnc4OC)c3F)ncc12
IC50 (Cytochrome P450 3A4): 33 µM
fraction unbound at 24 h [1]: 0.002
fraction unbound at 24 h [2]: 0.001
fAUC [3]: 0.048 µM·h
inhibition in vivo at 1 mg/kg [4]: 97%
